From patent publication US20120214862A1, “MODULATION OF FACTOR 7 EXPRESSION” (ISIS Pharmaceuticals, Inc., priority 2009, published 2012)
In the oligonucleotide strings, read from the 5' end, every base follows the letter of its sugar. An asterisk marks phosphorothioate; unmarked linkages are phosphodiester. Other units and linkages are bracketed, terminal groups are in braces. A string of capitals states the bases alone. e = 2'-O-(2-methoxyethyl) (MOE); [5mC] = 5-methylcytosine; d = 2'-deoxy (DNA)

Tested on: human Factor 7 mRNA
Assay: Inhibition of human Factor 7 mRNA by 2-10-2 MOE shortmers in HepB3 cells, electroporation, 1,000 nM
Assay type: cell-based
Conditions: electroporation, 1,000 nM oligonucleotide, approximately 24 hours, relative to untreated control cells
How it was run: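 14-mer 2-10-2 2′-MOE gapmers, full phosphorothioate, 5-methylcytidines, electroporated at 1,000 nM into HepB3 cells (20,000/well). After ~24 h, mRNA quantified by real-time RT-PCR, normalized to RIBOGREEN total RNA; percent inhibition relative to untreated cells.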

435658 (antisense eT*e[5mC]*dA*d[5mC]*dT*dG*d[5mC]*dA*dG*dT*dA*d[5mC]*eT*eG) [compound 435658]
% inhibition of human Factor 7 mRNA: 60%

435666 (antisense eG*eG*dT*dT*dT*dG*d[5mC]*dT*dG*dG*d[5mC]*dA*eT*eT) [compound 435666]
% inhibition of human Factor 7 mRNA: 71%

435491 (antisense e[5mC]*e[5mC]*d[5mC]*dT*dG*dG*dT*dG*dT*dA*d[5mC]*dA*e[5mC]*e[5mC]) [compound 435491]
% inhibition of human Factor 7 mRNA: 61%

435760 (antisense eT*e[5mC]*dT*dT*dG*dG*dG*dT*dG*dT*dG*dG*eA*eT) [compound 435760]
% inhibition of human Factor 7 mRNA: 17%

435763 (antisense eA*eG*dG*dA*dG*dA*dA*dA*dG*dG*dT*d[5mC]*eA*eG) [compound 435763]
% inhibition of human Factor 7 mRNA: 2%

435822 (antisense e[5mC]*e[5mC]*dA*dG*dG*dA*dG*d[5mC]*d[5mC]*dT*dT*dT*eA*e[5mC]) [compound 435822]
% inhibition of human Factor 7 mRNA: 37%

435659 (antisense eT*eA*d[5mC]*d[5mC]*d[5mC]*d[5mC]*dT*d[5mC]*dG*dT*dG*dG*e[5mC]*eA) [compound 435659]
% inhibition of human Factor 7 mRNA: 18%

435486 (antisense eG*eT*d[5mC]*d[5mC]*dT*dG*dG*dG*dT*d[5mC]*dA*dT*e[5mC]*eA) [compound 435486]
% inhibition of human Factor 7 mRNA: 64%

435843 (antisense eG*e[5mC]*dT*dG*dG*dA*dG*d[5mC]*dT*dG*dA*dG*e[5mC]*e[5mC]) [compound 435843]
% inhibition of human Factor 7 mRNA: 0%

435833 (antisense eA*eG*dA*d[5mC]*dA*d[5mC]*dT*dT*dG*dA*dG*dA*eG*e[5mC]) [compound 435833]
% inhibition of human Factor 7 mRNA: 24%

435780 (antisense eG*eG*dA*dG*dG*dG*dA*d[5mC]*dG*dA*d[5mC]*d[5mC]*eT*eT) [compound 435780]
% inhibition of human Factor 7 mRNA: 28%

435789 (antisense e[5mC]*eA*dT*dG*dT*dT*dA*dG*d[5mC]*d[5mC]*dT*dT*eT*eG) [compound 435789]
% inhibition of human Factor 7 mRNA: 3%

435832 (antisense eT*eG*d[5mC]*dT*d[5mC]*dA*dG*dA*d[5mC]*d[5mC]*dT*dG*eG*e[5mC]) [compound 435832]
% inhibition of human Factor 7 mRNA: 70%

435799 (antisense e[5mC]*eT*dG*dG*dT*d[5mC]*d[5mC]*d[5mC]*d[5mC]*dA*dT*d[5mC]*eT*eG) [compound 435799]
% inhibition of human Factor 7 mRNA: 33%

435650 (antisense e[5mC]*e[5mC]*dG*dG*d[5mC]*d[5mC]*d[5mC]*dT*d[5mC]*dG*dA*dA*eG*eG) [compound 435650]
% inhibition of human Factor 7 mRNA: 6%

435672 (antisense eA*e[5mC]*d[5mC]*d[5mC]*dA*dG*dA*dT*dG*dG*dT*dG*eT*eT) [compound 435672]
% inhibition of human Factor 7 mRNA: 12%

435490 (antisense e[5mC]*e[5mC]*dT*dG*dG*dT*dG*dT*dA*d[5mC]*dA*d[5mC]*e[5mC]*e[5mC]) [compound 435490]
% inhibition of human Factor 7 mRNA: 49%

435478 (antisense eG*eA*dG*dG*d[5mC]*dA*d[5mC]*dA*d[5mC]*dT*dG*dG*eT*e[5mC]) [compound 435478]
% inhibition of human Factor 7 mRNA: 43%

435848 (antisense eT*eG*dG*d[5mC]*d[5mC]*dA*d[5mC]*dT*dG*d[5mC]*d[5mC]*dT*e[5mC]*eA) [compound 435848]
% inhibition of human Factor 7 mRNA: 32%

435794 (antisense eG*eA*dG*dG*dT*dA*d[5mC]*dA*d[5mC]*dA*dG*dG*e[5mC]*eT) [compound 435794]
% inhibition of human Factor 7 mRNA: 26%

435824 (antisense e[5mC]*e[5mC]*dT*dA*dA*dA*dG*dA*dT*dG*dA*dA*eT*e[5mC]) [compound 435824]
% inhibition of human Factor 7 mRNA: 21%

435756 (antisense eT*eG*d[5mC]*d[5mC]*d[5mC]*dA*dG*dG*dA*d[5mC]*dG*dG*e[5mC]*e[5mC]) [compound 435756]
% inhibition of human Factor 7 mRNA: 20%

435768 (antisense eG*e[5mC]*d[5mC]*dT*dG*dG*dA*dT*dG*d[5mC]*dT*dG*eG*eT) [compound 435768]
% inhibition of human Factor 7 mRNA: 75%

435641 (antisense eG*eG*dT*d[5mC]*d[5mC]*d[5mC]*d[5mC]*dA*dT*d[5mC]*dA*d[5mC]*eT*eG) [compound 435641]
% inhibition of human Factor 7 mRNA: 51%

435830 (antisense eT*eG*dA*dT*dT*dT*dT*dG*d[5mC]*dA*dA*dA*eG*eA) [compound 435830]
% inhibition of human Factor 7 mRNA: 0%

435651 (antisense eA*e[5mC]*dA*dG*dT*dT*d[5mC]*d[5mC]*dG*dG*d[5mC]*d[5mC]*e[5mC]*eT) [compound 435651]
% inhibition of human Factor 7 mRNA: 71%

435846 (antisense eT*eG*dG*dA*dG*dA*dG*dA*d[5mC]*d[5mC]*dA*dA*eT*eG) [compound 435846]
% inhibition of human Factor 7 mRNA: 7%

435481 (antisense eG*eG*dG*dT*d[5mC]*dA*dT*d[5mC]*dA*dG*d[5mC]*d[5mC]*eG*eG) [compound 435481]
% inhibition of human Factor 7 mRNA: 50%

435738 (antisense e[5mC]*eA*dG*dA*dG*dG*dA*dT*dG*dA*dG*d[5mC]*eA*e[5mC]) [compound 435738]
% inhibition of human Factor 7 mRNA: 16%

435787 (antisense eG*eA*dG*dT*dG*dT*dG*dA*dG*dG*d[5mC]*dT*eT*e[5mC]) [compound 435787]
% inhibition of human Factor 7 mRNA: 34%

435741 (antisense eA*eG*dG*dG*dT*dT*d[5mC]*dA*dT*dT*dT*d[5mC]*eA*eG) [compound 435741]
% inhibition of human Factor 7 mRNA: 6%

435837 (antisense e[5mC]*eT*d[5mC]*dG*d[5mC]*d[5mC]*dT*dG*dG*dA*dA*dG*eG*eA) [compound 435837]
% inhibition of human Factor 7 mRNA: 37%
